≈ marks a conversion by molar mass, not a printed value.
Assays:
E. faecium ATCC 35667 = test: MIC and MBC testing, broth microdilution; format: cell-based, Enterococcus faecium; settings: Enterococcus faecium
Outline: (§1)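 Log-phase cultures diluted in Mueller-Hinton broth to 1 × 10^6 CFU/mL were exposed to doubling dilutions of DMSO-dissolved compounds at 37 °C for 18 h, each concentration in triplicate. Lowest concentration lacking visible growth recorded as MIC; controls were levofloxacin and 0.1% DMSO.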

S. aureus ATCC 29213 = test: MIC and MBC testing, broth microdilution; format: cell-based, Staphylococcus aureus; settings: Staphylococcus aureus
Outline: as §1

MRSA-1 = test: MIC and MBC testing, broth microdilution; format: cell-based, Staphylococcus aureus; settings: Staphylococcus aureus, MRSA
Outline: (§2)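 Broth microdilution in MH broth; two-fold serial dilutions of DMSO-dissolved compound; inoculum 1 × 10^6 CFU/mL from log-phase culture; 37 °C, 18 h; triplicates; MBC also read.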

MRSA-2 [1] = test: MIC and MBC testing, broth microdilution; format: cell-based, Staphylococcus aureus; settings: Staphylococcus aureus, MRSA
Outline: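 Triplicate broth microdilution: MH broth, serial 2× dilution of compounds dissolved in DMSO, 1 × 10^6 CFU/mL bacteria grown to log phase, 18 h at 37 °C, followed by MBC determination.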

[2] = tested on: clinical S. aureus isolate LMY45; test: MIC and MBC testing, broth microdilution; format: cell-based, Staphylococcus aureus; settings: Staphylococcus aureus
Outline: as §2

[3] = tested on: clinical S. aureus isolate LMY46; test: MIC and MBC testing, broth microdilution; format: cell-based, Staphylococcus aureus; settings: Staphylococcus aureus
Outline: as §2

[4] = tested on: clinical S. aureus isolate LMY47; test: MIC and MBC testing, broth microdilution; format: cell-based, Staphylococcus aureus; settings: Staphylococcus aureus
Outline: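 Compounds in DMSO were serially two-fold diluted in MH broth and mixed with log-phase bacteria diluted to 1 × 10^6 CFU/mL in MH broth, then incubated 18 h at 37 °C. MBC values were also determined. Each concentration was tested in triplicate.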

[5] = tested on: clinical S. aureus isolate LMY48; test: MIC and MBC testing, broth microdilution; format: cell-based, Staphylococcus aureus; settings: Staphylococcus aureus
Outline: as §2

MRSA-2 biofilm [6] = test: Biofilm elimination assay (crystal violet); format: cell-based, Staphylococcus aureus; settings: at the test concentration
Experimental: The ability of 2D to eliminate biofilm was evaluated. MRSA-2 (1 × 10^6 CFU/mL) was incubated in 96-well plates for 24 h until biofilm formation. The planktonic bacteria were discarded and washed thrice with PBS. […] According to the above method, the OD575 nm value was detected after the following steps: PBS washing, methanol fixation, crystal violet staining, and ethanol incubation.

MRSA-2 biofilm [7] = test: Biofilm formation inhibition assay (crystal violet); format: cell-based, Staphylococcus aureus; settings: Staphylococcus aureus, MRSA, 24 h, read-out: inhibition rate of biofilm formation
Experimental: The effect of 2D on the biofilm formation of MRSA was evaluated. MRSA-2 was cultured in MH broth for a period of 3–5 h, after which it was diluted to a density of 1 × 10^6 CFU/mL with MH broth. […] After the removal of the suspended bacteria, the well plates were washed thrice with PBS. Then, 150 μL of methanol was added and fixed for 30 min. Subsequent to air-drying, 150 μL of a 0.1% crystal violet aqueous solution was added. Following a 15 min staining period, the excess crystal violet was removed by rinsing with flowing water. Finally, 150 μL of anhydrous ethanol was added and the mixture was incubated for 20 min. The optical density at 575 nm was detected.

MRSA-2 [8] = test: MRSA-induced mouse skin abscess model; format: in vivo
From the text: The MRSA-induced mouse skin abscess model was used to assess the in vivo antibacterial effects of 2D. Female KM mice, aged 4–6 weeks and weighing 20 ± 2 g, were purchased from the Laboratory Animal Center, Lanzhou Institute of Veterinary Medicine, Chinese Academy of Agricultural Sciences. The animal experiments were approved by the Ethics Committee of Research Involving Animals of the Lanzhou Institute of Husbandry and Pharmaceutical Science of CAAS (Approval number: 2025-03) and performed in accordance with the guidelines of the Ethics Committee for Animal Experiments. Prior to the formal experiment, all mice were acclimated for 5 days. The mice were kept in a pathogen-free environment with a 12 h light/12 h dark cycle, 50% ± 10% humidity, and a temperature of 24 °C ± 2 °C. […] The depilation method employed was as follows: depilatory paste was applied to the designated area for 10 min, after which it was thoroughly washed with 0.9% saline. The mice were semi-anesthetized by intraperitoneal injection with sodium Ulatan (TCI, 20%, 100 μL). […] After a 24 h interval, the administration was repeated, and 24 h after the last administration, the volume of abscess was measured and calculated. Then, the skin of the infected site and main organs were collected for tissue bacterial load and pathological detection.

MRSA-2 [9] = test: Growth curve (OD600); format: cell-based, Staphylococcus aureus; settings: 2D 0.5, 1, 2, 4, 8 µg/mL, vancomycin 0.5 and 1 μg/mL
Experimental: (§3) The growth inhibition and time-dependent killing abilities of 2D were evaluated against S. aureus (ATCC 29213) and MRSA-2. After culturing the strains in MH broth until the logarithmic growth phase, they were diluted with MH broth to 1 × 10^6 CFU/mL. […] OD600 values were measured at predetermined time intervals (0, 1, 2, 4, 6, 8, 10, 12, and 24 h).

S. aureus (ATCC 29213) = test: Growth curve (OD600); format: cell-based, Staphylococcus aureus; settings: 2D 0.5, 1, 2, 4, 8 µg/mL, vancomycin 0.5 and 1 μg/mL
Experimental: as §3

MRSA-2 [10] = test: Fluorescence microscopy assay (DAPI/PI); format: cell-based, Staphylococcus aureus; settings: vancomycin 4 µg/mL; 2D 4 and 8 μg/mL; 2 h
Experimental: MRSA-2 was cultivated to the logarithmic growth phase, then washed with PBS and resuspended in PBS until the concentration of bacterial suspension reached 1 × 10^8 CFU/mL. […] Thereafter, the samples were incubated with DAPI (10 μM) and PI (10 μM) in the dark for 15 min. The bacterial cells were then subjected to observation under a fluorescence microscope. DMSO served as the negative controls.

CN[C@H](CC(C)C)C(=O)N[C@H]1C(=O)N[C@@H](CC(N)=O)C(=O)N[C@H]2C(=O)N[C@H]3C(=O)N[C@H](C(=O)N[C@H](C(=O)O)c4cc(O)cc(O)c4-c4cc3ccc4O)[C@H](O)c3ccc(c(Cl)c3)Oc3cc2cc(c3O[C@@H]2O[C@H](CO)[C@@H](O)[C@H](O)[C@H]2O[C@H]2C[C@](C)(N)[C@H](O)[C@H](C)O2)Oc2ccc(cc2Cl)[C@H]1O [Vancomycin, reference compound]
MBC (E. faecium ATCC 35667; ATCC35667): 16 µg/mL (≈ 11 µM)
MIC (E. faecium ATCC 35667; ATCC35667, 18 h): 2 µg/mL (≈ 1.38 µM)
MBC (S. aureus ATCC 29213; ATCC29213): 4 µg/mL (≈ 2.76 µM)
MIC (S. aureus ATCC 29213; ATCC29213, 18 h): 1 µg/mL (≈ 0.69 µM)
MBC (MRSA-1): 4 µg/mL (≈ 2.76 µM)
MIC (MRSA-1; 18 h): 1 µg/mL (≈ 0.69 µM)
MBC (MRSA-2 [1]): 2 µg/mL (≈ 1.38 µM)
MIC (MRSA-2 [1]; 18 h): 1 µg/mL (≈ 0.69 µM)
MBC [2]: 2 µg/mL (≈ 1.38 µM)
MIC ([2]; 18 h): 0.5 µg/mL (≈ 0.345 µM)
MBC [3]: 8 µg/mL (≈ 5.52 µM)
MIC ([3]; 18 h): 1 µg/mL (≈ 0.69 µM)
MBC [4]: 2 µg/mL (≈ 1.38 µM)
MIC ([4]; 18 h): 1 µg/mL (≈ 0.69 µM)
MBC [5]: 2 µg/mL (≈ 1.38 µM)
MIC ([5]; 18 h): 1 µg/mL (≈ 0.69 µM)
biofilm elimination (MRSA-2 biofilm [6]): unable to completely eliminate the biofilm
inhibition at 0.25 µg/mL (MRSA-2 biofilm [7]): ~18.5%
inhibition at 0.5 µg/mL (MRSA-2 biofilm [7]): ~37.8%
purulent lesions at the infection site (skin histopathology) (MRSA-2 [8]; 5 mg/kg): significantly smaller
volume of skin abscess (MRSA-2 [8]; 5 mg/kg, injected 2 h and 24 h postinfection, compared to model and solvent group): reduced volume
bacterial load of the skin at the infected site (MRSA-2 [8]; 2D 5 and 10 mg/kg, vancomycin 5 mg/kg, compared with model and solvent group): significantly reduced
histopathology of the major organs (MRSA-2 [8]; infected mice after treatment, H&E): no discernible lesions
growth inhibition (growth curve) (MRSA-2 [9]): failed to completely inhibit the growth
growth inhibition (growth curve) (S. aureus (ATCC 29213)): failed to completely inhibit the growth
PI red fluorescence (damaged membranes) (MRSA-2 [10]): a very small amount of red fluorescence
